Laboratory results taken from US8916599B2, “1H-benz imidazole-5-carboxamides as anti-inflammatory agents” (Orexo AB, priority 2008, dated 2014).

The molecules below were run against T1, recombinant human mPGES-1 (Homo sapiens, UniProt O14684) (assay: mPGES-1 inhibition test (microsomes, PGH2 substrate, HTRF detection of PGE2)). Details: inhibition of mPGES-1 at 1 μM (marked in cell).
T1 construct: made in house; host or cells: Rosetta E. coli (microsomal/membrane fraction)
T1 sequence (O14684 1-152): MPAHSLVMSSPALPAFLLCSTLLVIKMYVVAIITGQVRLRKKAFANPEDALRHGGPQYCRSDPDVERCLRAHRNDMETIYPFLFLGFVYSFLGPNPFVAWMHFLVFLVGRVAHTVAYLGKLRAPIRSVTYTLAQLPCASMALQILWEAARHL
Type: biochemical
Method in brief: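 E. coli microsomal enzyme, 0.1 M KPi pH 7.4 + 2.5 mM GSH; cpd (DMSO) 25 min RT; PGH2 1 min; acidic FeCl2 stop. Dilute 750-fold, HTRF (d2/Eu-cryptate anti-PGE2, overnight 4 °C), 665/620 ratio vs PGE2 standard curve.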

Structure (SMILES)	inhibition at 1 µM [%]
O=C(Nc1ccc(Cl)c(C(F)(F)F)c1)c1ccc2[nH]c(Nc3c(Cl)cccc3Cl)nc2c1 [Example 282, 2-(2,6-Dichloro-phenylamino)-1H-benzimidazole-5-carboxylic acid (4-chloro-3-trifluoromethyl-phenyl)-amide]	100
O=C(Nc1cccc(C(F)(F)F)c1)c1ccc2[nH]c(Nc3c(Cl)cccc3Cl)nc2c1 [Example 283, 2-(2,6-Dichloro-phenylamino)-1H-benzimidazole-5-carboxylic acid (3-trifluoromethyl-phenyl)-amide]	100

Same assay, conditions: inhibition of mPGES-1 at 10 μM

Structure (SMILES)	inhibition at 10 µM [%]
Cn1c(Nc2c(Cl)cccc2Cl)nc2cc(C(=O)NCCc3ccncc3)ccc21 [Example 260, 2-(2,6-Dichloro-phenylamino)-1-methyl-1H-benzimidazole-5-carboxylic acid (2-pyridin-4-yl-ethyl)-amide]	84
Cn1c(Nc2c(Cl)cccc2Cl)nc2cc(C(=O)NCC3CCCO3)ccc21 (centres unmarked) [Example 261, 2-(2,6-Dichloro-phenylamino)-1-methyl-1H-benzimidazole-5-carboxylic acid (tetrahydro-furan-2-ylmethyl)-amide]	92
Cn1c(Nc2c(Cl)cccc2Cl)nc2cc(C(=O)NCc3ccncc3)ccc21 [Example 262, 2-(2,6-Dichloro-phenylamino)-1-methyl-1H-benzimidazole-5-carboxylic acid (2-pyridin-4-yl-methyl)-amide]	61
O=C(Nc1cc(Cl)ccn1)c1ccc2c(c1)nc(Nc1c(Cl)cccc1Cl)n2CCCO [Example 263, 2-(2,6-Dichloro-phenylamino)-1-(3-hydroxy-propyl)-1H-benzimidazole-5-carboxylic acid (4-chloro-pyridin-2-yl)-amide]	93
O=C(Nc1cc(Cl)ccn1)c1ccc2c(c1)nc(Nc1c(Cl)cccc1Cl)n2CCC(=O)N1CCOCC1 [Example 264, 2-(2,6-Dichloro-phenylamino)-1-(3-morpholin-4-yl-3-oxo-propyl)-1H-benzimidazole-5-carboxylic acid (4-chloro-pyridin-2-yl)-amide]	90
O=C(O)CCn1c(Nc2c(Cl)cccc2Cl)nc2cc(C(=O)Nc3cc(Cl)ccn3)ccc21 [Example 265, 2-(2,6-Dichloro-phenylamino)-1-(propionic acid)-1H-benzimidazole-5-carboxylic acid (4-chloro-pyridin-2-yl)-amide]	97
CNCCCn1c(Nc2c(Cl)cccc2Cl)nc2cc(C(=O)Nc3cc(Cl)ccn3)ccc21 [Example 266, 2-(2,6-Dichloro-phenylamino)-1-(3-methylamino-propyl)-1H-benzimidazole-5-carboxylic acid (4-chloro-pyridin-2-yl)-amide]	100
O=C(Nc1cc(Cl)ccn1)c1ccc2c(c1)nc(Nc1c(Cl)cccc1Cl)n2CCN1CCCC1=O [Example 267, 2-(2,6-Dichloro-phenylamino)-1-[2-(2-oxo-pyrrolidin-1-yl)-ethyl]-1H-benzimidazole-5-carboxylic acid (4-chloro-pyridin-2-yl)-amide]	94
CC(=O)NCCCn1c(Nc2c(Cl)cccc2Cl)nc2cc(C(=O)Nc3cc(Cl)ccn3)ccc21 [Example 268, 2-(2,6-Dichloro-phenylamino)-1-(3-acetylamino-propyl)-1H-benzimidazole-5-carboxylic acid (4-chloro-pyridin-2-yl)-amide]	94
CS(=O)(=O)CCn1c(Nc2c(Cl)cccc2Cl)nc2cc(C(=O)Nc3cc(Cl)ccn3)ccc21 [Example 269, 2-(2,6-Dichloro-phenylamino)-1-(2-methanesulfonyl-ethyl)-1H-benzimidazole-5-carboxylic acid (4-chloro-pyridin-2-yl)-amide]	85
N[C@H]1C[C@H](n2c(Nc3c(Cl)cccc3Cl)nc3cc(C(=O)Nc4cc(Cl)ccn4)ccc32)C1 [Example 270, 2-(2,6-Dichloro-phenylamino)-1-(trans-3-amino-cyclobutyl)-1H-benzimidazole-5-carboxylic acid (4-chloro-pyridin-2-yl)-amide]	96
O=C(Nc1cc(Cl)ccn1)c1ccc2c(c1)nc(Nc1c(Cl)cccc1Cl)n2CCO [Example 271, 2-(2,6-Dichloro-phenylamino)-1-(2-hydroxy-ethyl)-1H-benzimidazole-5-carboxylic acid (4-chloro-pyridin-2-yl)-amide]	98
COCCn1c(Nc2c(Cl)cccc2Cl)nc2cc(C(=O)Nc3cc(Cl)ccn3)ccc21 [Example 272, 2-(2,6-Dichloro-phenylamino)-1-(2-methoxy-ethyl)-1H-benzimidazole-5-carboxylic acid (4-chloro-pyridin-2-yl)-amide]	90
CN(C)CCn1c(Nc2c(Cl)cccc2Cl)nc2cc(C(=O)Nc3cc(Cl)ccn3)ccc21 [Example 273, 2-(2,6-Dichloro-phenylamino)-1-(2-dimethylamino-ethyl)-1H-benzimidazole-5-carboxylic acid (4-chloro-pyridin-2-yl)-amide]	100
COCCCn1c(Nc2c(Cl)cccc2Cl)nc2cc(C(=O)Nc3cc(Cl)ccn3)ccc21 [Example 274, 2-(2,6-Dichloro-phenylamino)-1-(3-methoxy-propyl)-1H-benzimidazole-5-carboxylic acid (4-chloro-pyridin-2-yl)-amide]	100
O=C(Nc1cc(Cl)ccn1)c1ccc2c(c1)nc(Nc1c(Cl)cccc1Cl)n2CC(=O)N1CCOCC1 [Example 275, 2-(2,6-Dichloro-phenylamino)-1-(2-morpholin-4-yl-2-oxo-ethyl)-1H-benzimidazole-5-carboxylic acid (4-chloro-pyridin-2-yl)-amide]	96
CN(C)CCCn1c(Nc2c(Cl)cccc2Cl)nc2cc(C(=O)Nc3cc(Cl)ccn3)ccc21 [Example 276, 2-(2,6-Dichloro-phenylamino)-1-(3-dimethylamino-propyl)-1H-benzimidazole-5-carboxylic acid (4-chloro-pyridin-2-yl)-amide]	100
CCn1c(Nc2c(Cl)cccc2Cl)nc2cc(C(=O)Nc3cc(Cl)ccn3)ccc21 [Example 277, 2-(2,6-Dichloro-phenylamino)-1-ethyl-1H-benzimidazole-5-carboxylic acid (4-chloro-pyridin-2-yl)-amide]	99
CC(=O)NCCn1c(Nc2c(Cl)cccc2Cl)nc2cc(C(=O)Nc3cc(Cl)ccn3)ccc21 [Example 278, 2-(2,6-Dichloro-phenylamino)-1-(2-acetylamino-ethyl)-1H-benzimidazole-5-carboxylic acid (4-chloro-pyridin-2-yl)-amide]	92
O=C(Nc1ccc(Br)cc1)c1ccc2[nH]c(Nc3ccccc3Br)nc2c1 [Example 279, 2-(2-Bromo-phenylamino)-1H-benzimidazole-5-carboxylic acid (4-bromo-phenyl)-amide]	97
O=C(Nc1cc(Cl)ccc1Cl)c1ccc2[nH]c(Nc3c(Cl)cccc3Cl)nc2c1 [Example 281, 2-(2,6-Dichloro-phenylamino)-1H-benzimidazole-5-carboxylic acid (2,5-dichloro-phenyl)-amide]	100
O=C(Nc1ccccc1Cl)c1ccc2[nH]c(Nc3c(Cl)cccc3Cl)nc2c1 [Example 284, 2-(2,6-Dichloro-phenylamino)-1H-benzimidazole-5-carboxylic acid (2-chloro-phenyl)-amide]	100
O=C(Nc1cccc(F)c1)c1ccc2[nH]c(Nc3c(Cl)cccc3Cl)nc2c1 [Example 285, 2-(2,6-Dichloro-phenylamino)-1H-benzimidazole-5-carboxylic acid (3-fluoro-phenyl)-amide]	100
Cc1ccc(NC(=O)c2ccc3[nH]c(Nc4c(Cl)cccc4Cl)nc3c2)cc1Cl [Example 286, 2-(2,6-Dichloro-phenylamino)-1H-benzimidazole-5-carboxylic acid (3-chloro-4-methyl-phenyl)-amide]	100
O=C(Nc1cc(Cl)c(Cl)c(Cl)c1)c1ccc2[nH]c(Nc3c(Cl)cccc3Cl)nc2c1 [Example 287, 2-(2,6-Dichloro-phenylamino)-1H-benzimidazole-5-carboxylic acid (3,4,5-trichloro-phenyl)-amide]	92
O=C(NCC1CCCCC1)c1ccc2[nH]c(Nc3c(Cl)cccc3Cl)nc2c1 [Example 288, 2-(2,6-Dichloro-phenylamino)-1H-benzimidazole-5-carboxylic acid cyclohexylmethyl-amide]	100
O=C(Nc1cc(C(F)(F)F)ccc1Cl)c1ccc2[nH]c(Nc3c(Cl)cccc3Cl)nc2c1 [Example 292, 2-(2,6-Dichloro-phenylamino)-1H-benzimidazole-5-carboxylic acid (2-chloro-5-trifluoromethyl-phenyl)-amide]	100
O=C(Nc1cccc(C(F)(F)F)n1)c1ccc2[nH]c(Nc3c(Cl)cccc3Cl)nc2c1 [Example 305, 2-(2,6-Dichloro-phenylamino)-1H-benzimidazole-5-carboxylic acid (6-trifluoromethyl-pyridin-2-yl)-amide]	100
O=C(NCc1ccc(Cl)cc1)c1ccc2[nH]c(Nc3c(Cl)cccc3Cl)nc2c1 [Example 309, 2-(2,6-Dichloro-phenylamino)-1H-benzimidazole-5-carboxylic acid 4-chloro-benzylamide]	98
O=C(Nc1ccc(Cl)c(Cl)c1Cl)c1ccc2[nH]c(Nc3c(Cl)cccc3Cl)nc2c1 [Example 312, 2-(2,6-Dichloro-phenylamino)-1H-benzimidazole-5-carboxylic acid (2,3,4-trichloro-phenyl)-amide]	100
